Marks after values point to notes of the source that are not given here.
What was measured:
[1] = molecular target: T1, p53 Y220C (Homo sapiens, UniProt P04637, Y220C); experiment: DNA binding test (HTRF): binding of P53Y220C protein to DNA; assay type: biochemical; conditions: multiple ratio of EC50 of the compound to the reference compound, DNA binding test
T1 construct: a truncated mutant containing only amino acids 94-312 of p53; made in house; host or cells: E. coli
Experimental: (§1) In order to detect the ability of the aforementioned compounds to increase the binding of P53Y220C protein to DNA, the binding activity of p53 Y220C was measured by homogeneous time-resolved fluorescence (HTRF). Recombinant His-tagged p53 Y220C for HTRF measurement was expressed in bacteria E. coli. The recombinant protein was a truncated mutant containing only amino acids 94-312 of p53, and its sequence was […] […] VEGNLR […] TFRh[…] […]. The sense strand of the DNA double strand was 5′-[…]-3′, with a biotin tag at the 5′ end for activity assay, and the antisense strand was 5′-[…]-3′ 40 mL of assay buffer (20 mM Tris HCL, pH 7.5, 50 mM NaCl, 2 mM MgCl2, 0.02% Tween 20, 0.01% BSA, 1 mM DTT) was prepared. 10 mM compound was prepared and subjected to 3-fold dilution to obtain 10 dose gradient dilutions of the compound. 20 nL of the compound was added to a 384-well assay plate (PerkinElmer 6007299) using an Echo 655 Liquid Handler. P53Y220C protein was dissolved in assay buffer to reach a final concentration of 150 nM, and 5 μL thereof was added to each well, and incubated at room temperature for 5 min. DNA was dissolved in assay buffer to reach a final concentration of 150 nM, and 5 μL thereof was added to each well, and incubated at room temperature for 15 min. Anti 6HIS-XL665 (Cisbio 61HISXLB) was dissolved in assay buffer to reach a final concentration of 20 nM, and 5 μL thereof was added to each well. Streptavidin-Eu cryptate (Cisbio 610SAKLA) was dissolved in assay buffer to reach a final concentration of 0.625 nM, and 5 μL thereof was added to each well, and incubated at 27° C. for 1 hour. The plate was then read for signal values on an Envision (PerkinElmer 2105-0020) plate reader at 665 nm and 615 nm, respectively. […] Activation rate={(A-C)/(C)}*100%, A=(signal value at 665 nm/signal value at 615 nm); C=average signal of negative control (wherein, negative control referred to 0.1% DMSO).

[2] = molecular target: T2, p53 Y220C (Homo sapiens, UniProt P04637, P309S/R273H/Y220C); experiment: as above; assay type: biochemical; conditions: HTRF, activation of p53 Y220C (aa 94-312) binding to biotin DNA
T2 construct: a truncated mutant containing only amino acids 94-312 of p53; made in house; host or cells: E. coli
Experimental: as §1

[3] = tested on: NUGC-3 cells; experiment: NUGC-3 cell proliferation assay (CTG); assay type: cell-based, human; conditions: for Compound GI50 (nM)/Reference compound GI50 (nM): multiple ratio of GI50 of the compound to the reference compound; for GI50: Homo sapiens, NUGC-3, 144 h, 6 days, CTG
Experimental: In order to detect the inhibitory effect of the aforementioned compounds on the proliferation ability of NUGC-3 cells, 250 NUGC-3 cells (Nanjing Cobioer Biosciences Co., Ltd., CBP60492) were seeded into a 384-well plate (Corning 3765), 35 μL per well, and incubated overnight in a constant temperature incubator at 37° C. and 5% CO2. Then, 40 nL of the compound was added to the 384-well plate using an Echo 655 Liquid Handler, with a maximum final concentration of 10 μM, 1:3 serial dilutions, and a total of 10 doses. The culture was performed at 37° C. and 5% CO2 for 6 days. The plate was taken out from the incubator and equilibrated at room temperature for 10 minutes. 20 μL of CTG (Promage G7572) was added to each well of the plate according to the platemap. The plate was centrifuged at 1000 rpm for 1 min. The lysis of cells was induced by mixing on a shaker for 2 min. The plate was centrifuged at 1000 rpm for 1 min. Incubation was performed at room temperature for 10 min to stabilize luminescence signals. Luminescence values were recorded by Envision (PerkinElmer 2105-0020). GraphPad 9.0 was used to fit the inhibition rate and compound concentration into a nonlinear regression curve (dose response-variable slope) to calculate GI50, inhibition rate={1−(A−B)/(C−B)}*100%, A=signal value of compound; B=average signal of blank control; C=average signal of negative control (wherein negative control was 0.1% DMSO).

Structure (SMILES)	Compound EC50 (nM)/Reference compound EC50 (nM) [1]	EC50 [2] [nM]	Compound GI50 (nM)/Reference compound GI50 (nM) [3]	GI50 [3] [nM]
COc1cc(S(=N)(=O)C2CC2)ccc1NCC#Cc1cc2c(NC3CCN(C)CC3F)cccc2n1CC(F)(F)F (single isomer, unassigned) [Compound 39c]	B (B: EC50 of the reference compound<EC50 of the compound≤3.0*EC50 of the reference compound)	< 100	A (A: GI50 of the compound ≤ GI50 of the reference compound)	–
CNC(=O)c1ccc(NCC#Cc2nc3c(NC4CCC(N(C)[C@@H]5CCOC5)CC4)cccn3c2CC(F)(F)F)c(OC)c1 (stereo partly shown) [Compound 33]	C (C: EC50 of the compound≥3*EC50 of the reference compound)	100 to 500	C (C: GI50 of the compound ≥ 3 * GI50 of the reference compound)	–
[2H]C([2H])([2H])NC(=O)c1ccc(NCC#Cc2cc3c(NC4CCC(N5CCOCC5)CC4F)cccn3c2CC(F)(F)F)c(OC([2H])([2H])[2H])c1 (single isomer, unassigned) [Compound 73d]	B (B: EC50 of the reference compound<EC50 of the compound≤3.0*EC50 of the reference compound)	< 100	A (A: GI50 of the compound ≤ GI50 of the reference compound)	< 1000
COc1cc(S(N)(=O)=O)ccc1NCC#Cc1nc2c(NC3CCN(C)CC3)cccn2c1CC(F)(F)F [Compound 12]	B (B: EC50 of the reference compound<EC50 of the compound≤3.0*EC50 of the reference compound)	100 to 500	C (C: GI50 of the compound ≥ 3 * GI50 of the reference compound)	≥ 5000
CNC(=O)c1ccc(NCc2nnc(-c3nc4c(NC5CCN(C)CC5)cccn4c3CC(F)(F)F)s2)c(OC)c1 [Compound 18]	C (C: EC50 of the compound≥3*EC50 of the reference compound)	100 to 500	C (C: GI50 of the compound ≥ 3 * GI50 of the reference compound)	1000 to 5000
CNC(=O)c1ccc(NCC#Cc2nc3c(NC4CCN(C)CC4)cccn3c2CC(F)(F)F)c(F)c1 [Compound 13]	B (B: EC50 of the reference compound<EC50 of the compound≤3.0*EC50 of the reference compound)	100 to 500	C (C: GI50 of the compound ≥ 3 * GI50 of the reference compound)	1000 to 5000
CN1CCC(Nc2cccn3c(CC(F)(F)F)c(-c4noc(CNC(=O)c5ccn(C(C)(C)C)c5)n4)nc23)CC1 [Compound 17]	C (C: EC50 of the compound≥3*EC50 of the reference compound)	500 to 1000	C (C: GI50 of the compound ≥ 3 * GI50 of the reference compound)	–
CN1CCC(Nc2cccn3c(CC(F)(F)F)c(-c4nnc(CNC(=O)c5ccn(C(C)(C)C)c5)s4)nc23)CC1 [Compound 19]	B (B: EC50 of the reference compound<EC50 of the compound≤3.0*EC50 of the reference compound)	100 to 500	C (C: GI50 of the compound ≥ 3 * GI50 of the reference compound)	≥ 5000
[2H]C([2H])([2H])NC(=O)c1ccc(NCC#Cc2cc3c(NC4CCC(N5CC6(COC6)C5)CC4F)cccn3c2CC(F)(F)F)c(OC2CC2)c1 (stereo not shown) [Compound 76d]	A (A: EC50 of the compound≤EC50 of the reference compound)	< 100	A (A: GI50 of the compound ≤ GI50 of the reference compound)	< 1000
COc1cc(C#N)ccc1NCC#Cc1nc2c(NC3CCN(C)CC3)cccn2c1CC(F)(F)F [Compound 11]	B (B: EC50 of the reference compound<EC50 of the compound≤3.0*EC50 of the reference compound)	100 to 500	C (C: GI50 of the compound ≥ 3 * GI50 of the reference compound)	–
Cc1cc[nH]c1C(=O)NCC#Cc1nc2c(NC3CCN(C)CC3)cccn2c1CC(F)(F)F [Compound 28]	C (C: EC50 of the compound≥3*EC50 of the reference compound)	500 to 1000	C (C: GI50 of the compound ≥ 3 * GI50 of the reference compound)	–
COCCNC(=O)c1ccc(NCC#Cc2nc3c(N[C@@H]4CC[C@@H](N5CC6(COC6)C5)C[C@@H]4F)cccn3c2CC(F)(F)F)c(OC)c1 [Compound 52]	A (A: EC50 of the compound≤EC50 of the reference compound)	< 100	C (C: GI50 of the compound ≥ 3 * GI50 of the reference compound)	–
CNC(=O)c1ccc(NCC#Cc2nc3c(NC4CCC(N5CC6CCC(C5)O6)CC4)cccn3c2CC(F)(F)F)c(OC)c1 (stereo not shown) [Compound 34]	C (C: EC50 of the compound≥3*EC50 of the reference compound)	100 to 500	C (C: GI50 of the compound ≥ 3 * GI50 of the reference compound)	–
[2H]C([2H])([2H])NC(=O)c1ccc(NCC#Cc2cc3c(NC4CCC(N5CC6(COC6)C5)CC4F)cccn3c2CC(F)(F)F)c(OCF)c1 (stereo not shown) [Compound 78d]	A (A: EC50 of the compound≤EC50 of the reference compound)	< 100	A (A: GI50 of the compound ≤ GI50 of the reference compound)	< 1000
CNC(=O)c1cc(OC)c(NCC#Cc2nc3c(N[C@H]4CC[C@H](N5CC6(COC6)C5)CC4)cccn3c2CC(F)(F)F)cc1F [Compound 27]	B (B: EC50 of the reference compound<EC50 of the compound≤3.0*EC50 of the reference compound)	< 100	C (C: GI50 of the compound ≥ 3 * GI50 of the reference compound)	–
CN1CCC(Nc2cccn3c(CC(F)(F)F)c(-c4nnc(CNC(=O)c5cnn(Cc6ccccc6)c5)s4)nc23)CC1 [Compound 23]	B (B: EC50 of the reference compound<EC50 of the compound≤3.0*EC50 of the reference compound)	100 to 500	C (C: GI50 of the compound ≥ 3 * GI50 of the reference compound)	1000 to 5000
CNC(=O)c1ccc(NCC#Cc2nc3c(NC4CCN(C(C)C)CC4F)cccn3c2CC(F)(F)F)c(OC)c1 (stereo not shown) [Compound 20]	C (C: EC50 of the compound≥3*EC50 of the reference compound)	500 to 1000	C (C: GI50 of the compound ≥ 3 * GI50 of the reference compound)	1000 to 5000
COc1cc(S(C)(=N)=O)ccc1NCC#Cc1nc2c(NC3CCN(C)CC3)cccn2c1CC(F)(F)F (stereo not shown) [Compound 15]	C (C: EC50 of the compound≥3*EC50 of the reference compound)	100 to 500	C (C: GI50 of the compound ≥ 3 * GI50 of the reference compound)	< 1000
